The test relates to Primary human melanocytes. Description: Melanin content in-vitro assay after siRNA transfection. It counts as cell-based. On the set-up: dose or concentration left out as unconfirmed. Conditions: 72 hours; average of 3 readings. The procedure:
Ten siRNA double strands of which one strand has the oligonucleotide as given below were synthetically prepared and used to estimate the potential as skin lightening agent using the melanin content in-vitro assay. It is clear to a person skilled in this area that specifying a single strand is sufficient to fully define the double stranded siRNA. The in-vitro assay was carried out as below: Primary human melanocytes were cultured for 24 hrs. Cells were transfected with Mirus Trans IT-TKO transfection reagent and duplex oligomers in culture media. […] After 1 hour at 60° C., absorbance was measured at 400 nm. Melanin content is expressed as % melanin content over scramble treated cells. The experiments were carried out and the data on melanin content as a percentage of the control sample is summarized as an average of 3 readings in table 1. Kojic acid is known to complete action within 72 hours.

Consider `O=c1cc(CO)occ1O` [Kojic acid], for which the “% control melanin” value is on record as 76%.

(Values after patent publication US9295631B2, “Skin lightening composition” (Conopco, Inc., priority 2012, dated 2016).)
